Experimental findings from patent US9708336B2, “Metallo-beta-lactamase inhibitors” (priority 2014, dated 2017) are described below.

Like-named read-outs stand apart in the source and are kept apart here.

The target of one assay is NDM-1 (Klebsiella pneumoniae, UniProt C7C422). As to the kind of experiment: biochemical. Format: biochemical. The following applies: fluorescence assay with CCF2-FA substrate; read-out: NDM-1 IC50.
For another assay, the target named is IMP-1 (Serratia marcescens, UniProt P52699). As to the kind of experiment: biochemical. Format: biochemical. The following applies: fluorescence assay with CCF2-FA substrate; read-out: IMP-1 IC50.
The target of the next assay is VIM-1 (Pseudomonas aeruginosa (strain ATCC 15692 / DSM 22644 / CIP 104116 / JCM 14847 / LMG 12228 / 1C / PRS 101 / PAO1), UniProt A0A0F7KYQ8). As to the kind of experiment: Enzyme activity: determination of IC50, fluorescence assay with CCF2-FA substrate (VIM-1). Format: biochemical.
Assay [1] has as its system Escherichia coli expressing NDM-1 (CLB30016). The experiment in a line: Antibiotic potentiation activity: synergistic concentration (MITC95) with imipenem, OD600 growth. As to conditions: CLB30016 (NDM-1), 95% inhibition of bacterial growth. Type of assay: cell-based. The essentials:
(§1)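 Steps: colonies grown overnight at 35 °C; resuspended in saline to OD600 0.11–0.15 by strain; diluted 1:100 into 1.1× CAMHB; imipenem then compound added (antibiotic 4 μg/ml in assay); incubated 35 °C for 22–24 h; absorbance measured.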

In assay [2] the test system is Klebsiella pneumoniae expressing VIM-1 (IHMA599644). The description is as above. Type of assay: cell-based. The following applies: IHMA599644 (VIM-1), 95% inhibition of bacterial growth. The essentials:
as §1

Assay [3] has as its system Serratia marcescens expressing IMP-1 (CL5741). The description is as above. Type of assay: cell-based. The following applies: CL5741 (IMP-1), 95% inhibition of bacterial growth. The essentials: as §1
[4] abbreviates: VIM-1 IC50, fluorescence assay with CCF2-FA substrate.
Setting [5] is: fluorescence assay with CCF2-FA substrate, read-out: VIM-1 IC50.

Sequence of IMP-1 (P52699 whole entry, looked up): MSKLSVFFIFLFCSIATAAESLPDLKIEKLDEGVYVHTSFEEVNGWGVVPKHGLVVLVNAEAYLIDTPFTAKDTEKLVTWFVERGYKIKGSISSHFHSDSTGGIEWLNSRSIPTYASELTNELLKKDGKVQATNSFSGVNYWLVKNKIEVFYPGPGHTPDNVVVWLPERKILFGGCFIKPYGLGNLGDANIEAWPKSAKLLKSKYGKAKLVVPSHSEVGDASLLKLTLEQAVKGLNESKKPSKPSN
Sequence of NDM-1 (C7C422 whole entry, looked up, species assumed): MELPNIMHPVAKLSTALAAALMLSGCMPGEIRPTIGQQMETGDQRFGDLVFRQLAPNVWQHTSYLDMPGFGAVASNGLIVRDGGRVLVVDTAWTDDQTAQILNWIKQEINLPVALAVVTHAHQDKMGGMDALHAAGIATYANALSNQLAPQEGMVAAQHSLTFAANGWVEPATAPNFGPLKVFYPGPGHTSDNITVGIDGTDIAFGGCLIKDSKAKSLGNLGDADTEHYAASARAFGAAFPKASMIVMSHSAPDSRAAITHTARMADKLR

As usually defined, the IC50 is the concentration needed to halve the response being measured. `NS(=O)(=O)c1c(C(F)(F)F)ccc(-c2ccc(C3CCN(C4CC5CCC4N5)CC3)cc2)c1-c1nnn[nH]1` (stereo not drawn) [Example 788, 4′-[1-(7-azabicyclo[2.2.1]hept-2-yl)piperidin-4-yl]-2-(1H-tetrazol-5-yl)-4-(trifluoromethyl)biphenyl-3-sulfonamide]: the results for the IC50 at NDM-1, at IMP-1 and against VIM-1 (setting [4]) were 2.83 nM, 0.438 nM and 35.7 nM, respectively. Also, the “Escherichia coli MITC95” value in assay [1] is 6.25 µM. Moreover, in assay [2], the “Klebsiella pneumoniae MITC95” value was >200 µM. In assay [3], the “Serratia marcescens MITC95” value was 6.25 µM.
With `NS(=O)(=O)c1c(C(F)(F)F)ccc(-c2ccc(C3CCN(C4CCNC4)CC3)cc2)c1-c1nnn[nH]1` (stereo not drawn) [Example 789, 4′-(1-pyrrolidin-3-ylpiperidin-4-yl)-2-(1H-tetrazol-5-yl)-4-(trifluoromethyl)biphenyl-3-sulfonamide], the IC50 at NDM-1 came to 2.4 nM; at IMP-1, 0.472 nM; on VIM-1 (setting [5]), 16.5 nM. The “Escherichia coli MITC95” value in assay [1] is 3.125 µM. Moreover, the “Klebsiella pneumoniae MITC95” value in assay [2] is 100 µM. Besides, the “Serratia marcescens MITC95” value in assay [3] was 3.125 µM.
For `NC1CC(N2CCC(c3ccc(-c4ccc(C(F)(F)F)c(S(N)(=O)=O)c4-c4nnn[nH]4)cc3)CC2)C1` (stereo not drawn) [Example 790, 4′-[1-(3-aminocyclobutyl)piperidin-4-yl]-2-(1H-tetrazol-5-yl)-4-(trifluoromethyl)biphenyl-3-sulfonamide], the IC50 at NDM-1 was 3.57 nM; on IMP-1 it was 0.871 nM; on VIM-1 (setting [5]), 7.26 nM. For the same molecule, the “Escherichia coli MITC95” value in assay [1] amounted to 0.7813 µM. Moreover, the “Klebsiella pneumoniae MITC95” value in assay [2] came to 12.5 µM. Besides, in assay [3], the “Serratia marcescens MITC95” value was 3.125 µM.
In the case of `NCCC1CCC(N2CCC(c3ccc(-c4ccc(C(F)(F)F)c(S(N)(=O)=O)c4-c4nnn[nH]4)cc3)CC2)CC1` (stereo not drawn) [Example 792, 4′-{1-[4-(2-aminoethyl)cyclohexyl]piperidin-4-yl}-2-(1H-tetrazol-5-yl)-4-(trifluoromethyl)biphenyl-3-sulfonamide], the IC50 at NDM-1 was 7.31 nM; at IMP-1 it was 1.55 nM; at VIM-1 (setting [5]) it was 4.38 nM. In addition, the “Escherichia coli MITC95” value in assay [1] worked out at 3.125 µM. Also, the “Klebsiella pneumoniae MITC95” value in assay [2] came out at 25 µM. In addition, in assay [3], the “Serratia marcescens MITC95” value came to 3.125 µM.
With `NS(=O)(=O)c1c(C(F)(F)F)ccc(-c2ccc(C3CCN(CCC4CCNCC4)CC3)cc2)c1-c1nnn[nH]1` [Example 793, 4′-[1-(2-piperidin-4-ylethyl)piperidin-4-yl]-2-(1H-tetrazol-5-yl)-4-(trifluoromethyl)biphenyl-3-sulfonamide], the figures for the half-maximal inhibitory concentration (IC50) at NDM-1, at IMP-1 and at VIM-1 (setting [5]) were 7 nM, 1.02 nM and 4.66 nM, respectively. The “Escherichia coli MITC95” value in assay [1] was determined as 1.563 µM. For the same molecule, the “Klebsiella pneumoniae MITC95” value in assay [2] turned out to be 25 µM. Also, the “Serratia marcescens MITC95” value in assay [3] came to 3.125 µM.
For the molecule `NC1CCC(N2CCC(c3ccc(-c4ccc(C(F)(F)F)c(S(N)(=O)=O)c4-c4nnn[nH]4)cc3)CC2)CC1` (stereo not drawn) [Example 794, 4′-[1-(4-aminocyclohexyl)piperidin-4-yl]-2-(1H-tetrazol-5-yl)-4-(trifluoromethyl)biphenyl-3-sulfonamide], the IC50 on NDM-1 is 6.44 nM; on IMP-1 it was 1.76 nM; on VIM-1 (setting [5]), 11 nM. The “Escherichia coli MITC95” value in assay [1] turned out to be 1.563 µM. The “Klebsiella pneumoniae MITC95” value in assay [2] was 50 µM. In assay [3], the “Serratia marcescens MITC95” value is 3.125 µM.
Consider `NS(=O)(=O)c1c(C(F)(F)F)ccc(-c2ccc(C3CCN(CC4CCNC4)CC3)cc2)c1-c1nnn[nH]1` (stereo not drawn) [Example 795, 4′-[1-(pyrrolidin-3-ylmethyl)piperidin-4-yl]-2-(1H-tetrazol-5-yl)-4-(trifluoromethyl)biphenyl-3-sulfonamide], for which the figures for the IC50 on NDM-1, on IMP-1 and at VIM-1 (setting [5]) were 5.23 nM, 1.1 nM and 6.57 nM, respectively. Besides, the “Escherichia coli MITC95” value in assay [1] is 1.563 µM. Besides, the “Klebsiella pneumoniae MITC95” value in assay [2] is 25 µM. Further, the “Serratia marcescens MITC95” value in assay [3] came to 3.125 µM.
As to `NS(=O)(=O)c1c(C(F)(F)F)ccc(-c2ccc(C3CCN(C4CNC4)CC3)cc2)c1-c1nnn[nH]1` [Example 796, 4′-(1-azetidin-3-ylpiperidin-4-yl)-2-(1H-tetrazol-5-yl)-4-(trifluoromethyl)biphenyl-3-sulfonamide], the half-inhibitory concentration (IC50) at NDM-1 amounted to 2.06 nM; on IMP-1 it was 0.345 nM; against VIM-1 (setting [4]), 18 nM. Moreover, the “Escherichia coli MITC95” value in assay [1] is 6.25 µM. The “Klebsiella pneumoniae MITC95” value in assay [2] was >200 µM. Also, the “Serratia marcescens MITC95” value in assay [3] was 6.25 µM.
For `NS(=O)(=O)c1c(C(F)(F)F)ccc(-c2ccc(C3CCN(C4CC5(CCNCC5)C4)CC3)cc2)c1-c1nnn[nH]1` [Example 797, 4′-[1-(7-azaspiro[3.5]non-2-yl)piperidin-4-yl]-2-(1H-tetrazol-5-yl)-4-(trifluoromethyl)biphenyl-3-sulfonamide], the IC50 was found to be 5.57 nM on NDM-1, 1.51 nM on IMP-1 and 9.92 nM on VIM-1 (setting [5]). Also, the “Escherichia coli MITC95” value in assay [1] was found to be 3.125 µM. Moreover, the “Klebsiella pneumoniae MITC95” value in assay [2] came to 25 µM. In addition, the “Serratia marcescens MITC95” value in assay [3] was 3.125 µM.
For `CNC1CC(N2CCC(c3ccc(-c4ccc(C(F)(F)F)c(S(N)(=O)=O)c4-c4nnn[nH]4)cc3)CC2)C1` (stereo not drawn) [Example 799, 4′-{1-[3-(methylamino)cyclobutyl]piperidin-4-yl}-2-(1H-tetrazol-5-yl)-4-(trifluoromethyl)biphenyl-3-sulfonamide], the IC50 at NDM-1 came out at 3.89 nM; at IMP-1, 1.05 nM; at VIM-1 (setting [5]), 15 nM. Moreover, the “Escherichia coli MITC95” value in assay [1] amounted to 3.125 µM. Further, in assay [2], the “Klebsiella pneumoniae MITC95” value was >200 µM. In addition, in assay [3], the “Serratia marcescens MITC95” value was determined as 3.125 µM.
For `NS(=O)(=O)c1c(C(F)(F)F)ccc(-c2ccc(C3CN(CC4CNC4)C3)cc2)c1-c1nnn[nH]1` [Example 800, 4′-[1-(azetidin-3-ylmethyl)azetidin-3-yl]-2-(1H-tetrazol-5-yl)-4-(trifluoromethyl)biphenyl-3-sulfonamide], the IC50 at NDM-1 was 2.68 nM; at IMP-1, 5.14 nM; at VIM-1 (setting [5]), 14.3 nM. Moreover, the “Escherichia coli MITC95” value in assay [1] was determined as 0.7813 µM. Further, in assay [2], the “Klebsiella pneumoniae MITC95” value stood at 12.5 µM. In addition, in assay [3], the “Serratia marcescens MITC95” value came to 6.25 µM.
Consider `NS(=O)(=O)c1c(C(F)(F)F)ccc(-c2ccc(C3CN(C4CCNC4)C3)cc2)c1-c1nnn[nH]1` (stereo not drawn) [Example 801, 4′-(1-pyrrolidin-3-ylazetidin-3-yl)-2-(1H-tetrazol-5-yl)-4-(trifluoromethyl)biphenyl-3-sulfonamide], for which the IC50 was determined as 2.22 nM on NDM-1, 2.8 nM on IMP-1 and 9.45 nM at VIM-1 (setting [5]). Also, the “Escherichia coli MITC95” value in assay [1] was 3.125 µM. Further, the “Klebsiella pneumoniae MITC95” value in assay [2] was found to be 100 µM. Besides, in assay [3], the “Serratia marcescens MITC95” value amounted to 6.25 µM.
Take `NS(=O)(=O)c1c(C(F)(F)F)ccc(-c2ccc(C3CN(C4CCNCC4)C3)cc2)c1-c1nnn[nH]1` [Example 802, 4′-(1-piperidin-4-ylazetidin-3-yl)-2-(1H-tetrazol-5-yl)-4-(trifluoromethyl)biphenyl-3-sulfonamide]: the IC50 at NDM-1 amounted to 3.25 nM; on IMP-1 it was 4.27 nM; at VIM-1 (setting [5]), 17.2 nM. Also, the “Escherichia coli MITC95” value in assay [1] was found to be 6.25 µM. Besides, in assay [2], the “Klebsiella pneumoniae MITC95” value stood at 100 µM. Besides, the “Serratia marcescens MITC95” value in assay [3] was determined as 6.25 µM.
As for `NS(=O)(=O)c1c(C(F)(F)F)ccc(-c2ccc(C3CN(CCC4CCNCC4)C3)cc2)c1-c1nnn[nH]1` [Example 803, 4′-[1-(2-piperidin-4-ylethyl)azetidin-3-yl]-2-(1H-tetrazol-5-yl)-4-(trifluoromethyl)biphenyl-3-sulfonamide], the IC50 turned out to be 4.87 nM on NDM-1, 13 nM on IMP-1 and 13.2 nM at VIM-1 (setting [4]). Also, in assay [1], the “Escherichia coli MITC95” value worked out at 6.25 µM. In addition, the “Klebsiella pneumoniae MITC95” value in assay [2] was 100 µM. The “Serratia marcescens MITC95” value in assay [3] was 6.25 µM.
For the molecule `NS(=O)(=O)c1c(C(F)(F)F)ccc(-c2ccc(C3CN(C4CC5(CCNCC5)C4)C3)cc2)c1-c1nnn[nH]1` [Example 805, 4′-[1-(7-azaspiro[3.5]non-2-yl)azetidin-3-yl]-2-(1H-tetrazol-5-yl)-4-(trifluoromethyl)biphenyl-3-sulfonamide], the IC50 at NDM-1 was 3.77 nM; at IMP-1, 7.58 nM; at VIM-1 (setting [5]), 19.7 nM. Further, the “Escherichia coli MITC95” value in assay [1] stood at 3.125 µM. The “Klebsiella pneumoniae MITC95” value in assay [2] was 50 µM. Further, the “Serratia marcescens MITC95” value in assay [3] was 6.25 µM.
Take `NC1(CN2CC(c3ccc(-c4ccc(C(F)(F)F)c(S(N)(=O)=O)c4-c4nnn[nH]4)cc3)C2)CC1` [Example 806, 4′-{1-[(1-aminocyclopropyl)methyl]azetidin-3-yl}-2-(1H-tetrazol-5-yl)-4-(trifluoromethyl)biphenyl-3-sulfonamide]: the IC50 on NDM-1 amounted to 4.68 nM; at IMP-1, 7.67 nM; on VIM-1 (setting [5]), 5.02 nM. Further, the “Escherichia coli MITC95” value in assay [1] was 6.25 µM. Also, in assay [2], the “Klebsiella pneumoniae MITC95” value amounted to 12.5 µM. For the same molecule, in assay [3], the “Serratia marcescens MITC95” value is 6.25 µM.
